Values of other authors in patent US6436417B1, “Acne treatment compositions” (Blistex Inc., priority 2001, dated 2002).

What was measured:
[1] = not given; remark: listed apart in the source
[2] = in sunlight and in the presence of ferric salts

pH of the aqueous solution (1 gram in about 460 ml of water at room temperature): 2.4
solubility in water (volume of water dissolving 1 gram) (1 gram, water, room temperature): about 460 ml
solubility in water (water, room temperature): about 0.2 % by weight
solubility in alcohol (volume of alcohol dissolving 1 gram) [1]: about 2.7 ml
stability to discoloration [2]: strong tendency to discolor
Compound: O=C(O)c1ccccc1O [Salicylic acid, salicylic acid]
